The values below come from article PMC11822723 (ACS Omega, 2025).

Values after ≈ are worked out from the molar mass of the structure shown. Read-outs that look alike come from different tables or passages of the source.

A short description of data set [1]: Aqueous solubility measurements (stepwise solvent addition, stereo microscope). The class given is physicochemical. Particulars: for solubility: thermodynamic from solid, read-out: solubility, conc. From the text:
Thus, the impact of the pH value on the solubilities of the Ox-Ibu-PIP-X-Mal complexes was investigated. Commercially available 0.9% NaCl has a pH of roughly 5, but when acidified to pH 3, the solubilities of both Ox-Ibu-PIP-X-Mal complexes increased by a factor of 1.5. […] Expectedly, using phosphate buffer or phosphate-buffered saline (PBS) at pH 7.4 further decreased the solubility.
5% glucose and 0.9% NaCl solutions were purchased from B. Braun. 0.9% NaCl solutions were acidified to pH 3.0 using 1 M HCl and basified to pH 7.0 using 1 M NaOH. Aqueous buffers (citrate, PB, PBS) were prepared in 100 mM concentrations. One mg of compound was weighted using a Sartorius ME215P analytical balance and the solubility was investigated according to the following stepwise interval: +1 μL in the volume range 0–10 μL; +10 μL in the volume range 10–100 μL; +100 μL in the volume range 100–1000 μL; +1000 μL in the volume range 1000–5000 μL. Dissolution of the sample was investigated using a Leica M80 routine stereo microscope (50× magnification) until no solid particles were observed.

Data set [2] in a line: Hydrolytic stability of the maleimide in phosphate buffer, UHPLC. The following applies: 1 mM, 150 mM phosphate buffer pH 7.4, 20 °C. The class given is physicochemical. The procedure:
It is known from literature that most maleimides are prone to hydrolysis at physiological pH.[38] Consequently, the hydrolytic stabilities of the three oxaliplatin(IV)-acetato complexes bearing the piperazine maleimides were studied in comparison to the reference complex Ox-OAc-PEG4-Mal. The hydrolysis of the platinum(IV)-acetato complexes was investigated in phosphate buffer at pH 7.4 and 20 °C over 5 h and the amount of remaining intact parental complex was monitored with ultrahigh-performance liquid chromatography (UHPLC) (Figure 1). Ox-OAc-PIP-C2-Mal hydrolyzed rapidly, with only traces of intact platinum(IV)-maleimide remaining after 1 h incubation time. […] These dramatic differences are in line with some model maleimide compounds reported in literature, also containing piperazine moieties.[38] The strong inductive effects of the protonated quaternary nitrogen of the piperazine can explain the extremely fast hydrolysis of Ox-OAc-PIP-C2-Mal.
Phosphate buffer (150 mM, pH 7.4) containing 1 mM platinum compound was incubated at 20 °C. The reaction was monitored on a Thermo Scientific Dionex UltiMate 3000 UHPLC-system using a Waters Acquity UPLC BEH C18 1.7 μm 3.0 mm × 50 mm column. Milli-Q water, containing 0.1% formic acid, and acetonitrile containing 0.1% formic acid were used as eluents. A gradient of 5–95% over 5 min was used. […]

Another data set has as its target T1, albumin (Bos taurus, UniProt P02769).
T1 construct: Serum proteins (including albumin) have a retention time of 2–4 min, with the albumin fraction eluting at 4.0 min; tissue Sigma-Aldrich; host or cells: fetal calf serum (whole serum, buffered with 150 mM phosphate pH 7.4)
In words: Albumin binding in phosphate-buffered fetal calf serum, 195Pt traces by SEC-ICP-MS. The format is in vitro ADME. Particulars: for bound to albumin after 1 h of incubation / bound to albumin at time point 0: 100 μM in FCS (150 mM phosphate buffer, pH 7.4), 37 °C. The procedure: Subsequently, it was of interest how the observed divergent maleimide hydrolysis rates impact the albumin binding kinetics. Therefore, the different platinum(IV) complexes were incubated in phosphate-buffered fetal calf serum (FCS) at 37 °C over 25 h and ^195Pt traces were measured via size-exclusion chromatographyinductively coupled plasma mass spectrometry (SEC-ICP-MS). Serum proteins (including albumin) have a retention time of 2–4 min, with the albumin fraction eluting at 4.0 min (Figure S1) as part of the high-molecular weight fraction (HMWF) and unbound platinum(IV) complexes elute in the low-molecular weight fraction (LMWF) with retention times usually >5 min. Already at time point 0, ∼60% of Ox-OAc-PEG4-Mal (tR = 6.4 min) was bound to albumin at 4.0 min in the HMWF, which increased to ∼90% after 1 h of incubation (Figure 2A). The remaining 10% of the parental complex (at tR > 5 min) most likely either contained a hydrolyzed maleimide moiety, unable to bind albumin, or were conjugated to low-molecular weight sulfur-containing compounds. The formed platinum(IV)-albumin conjugate remained stable for more than 25 h. […] In the LMWF, only a small peak of still intact Ox-OAc-PIP-C2-Mal (tR 6.5 min) could be observed, while a major signal (∼35%) of most likely already hydrolyzed maleimide compound appeared at tR 5.8 min. This is in very good agreement with the very fast hydrolysis of the maleimide moiety shown above (see Figure 1).
FCS was purchased from Sigma-Aldrich and buffered with 150 mM phosphate pH 7.4 in order to guarantee a stable pH. The platinum(IV) complexes (5 mM) were dissolved in 150 mM phosphate buffer (pH 7.4) and diluted […] in the buffered serum to obtain a final concentration of 100 μM. The samples were incubated in the autosampler at 37 °C and analyzed at 0, 1, 4, 24, and 25 h time points. Between each sample a pure water blank was measured. For SEC-ICP-MS measurements an Agilent 1260 Infinity system coupled to an Agilent 7800 ICP-MS equipped with a dynamic reaction cell was used. Oxygen (purity 5.5, Messer Austria GmbH, Gumpoldskirchen, Austria) was used as reaction gas.
A general note: SEC sorts molecules by how far they enter the pores of the column.

Setting [3] is: 0.9% NaCl solution, pH 5, saline or isotonic, 0.9% NaCl.
[4] abbreviates: 5% glucose solution, saline or isotonic, 5% glucose.

T1 sequence (P02769 25-607): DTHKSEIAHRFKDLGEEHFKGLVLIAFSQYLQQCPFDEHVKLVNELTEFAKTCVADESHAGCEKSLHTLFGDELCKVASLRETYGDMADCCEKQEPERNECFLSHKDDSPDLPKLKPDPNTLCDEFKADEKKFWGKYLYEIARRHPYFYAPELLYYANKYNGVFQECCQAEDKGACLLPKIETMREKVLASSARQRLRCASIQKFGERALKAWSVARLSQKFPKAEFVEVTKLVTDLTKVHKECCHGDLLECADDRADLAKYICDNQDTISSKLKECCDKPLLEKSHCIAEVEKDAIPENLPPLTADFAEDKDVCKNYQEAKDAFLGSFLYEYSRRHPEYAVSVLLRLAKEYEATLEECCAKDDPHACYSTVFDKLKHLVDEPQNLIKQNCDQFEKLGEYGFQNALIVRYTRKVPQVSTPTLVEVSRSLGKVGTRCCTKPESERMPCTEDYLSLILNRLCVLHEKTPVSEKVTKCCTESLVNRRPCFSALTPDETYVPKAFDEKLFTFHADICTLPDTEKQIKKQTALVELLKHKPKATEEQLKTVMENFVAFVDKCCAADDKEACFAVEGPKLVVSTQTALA

The solubility is the concentration that dissolves in the medium under given conditions. `CC(C)[C@H](NC(=O)CCC(=O)NCCN1CCN(CCOCCN2C(=O)C=CC2=O)CC1)C(=O)N[C@@H](CCCNC(N)=O)C(=O)Nc1ccc(CO)cc1` [Mal-O-PIP-Succ-ValCitPAB-OH, N1-(2-(4-(2-(2-(2,5-Dioxo-2,5-dihydro-1H-pyrrol-1-yl)ethoxy)ethyl)piperazin-1-yl)ethyl)-N4-((S)-1-(((S)-1-((4-(hydroxymethyl)phenyl)amino)-1-oxo-5-ureidopentan-2-yl)amino)-3-methyl-1-oxobutan-2-yl)succinamide]: the solubility came to 1300 mM (≈ 985 mg/mL) in data set [1] (setting [3]) and 600 mM (≈ 455 mg/mL) in data set [1] (setting [4]).

With `CC(C)[C@H](NC(=S)NCCN1CCN(CCOCCN2C(=O)C=CC2=O)CC1)C(=O)N[C@@H](CCCNC(N)=O)C(=O)Nc1ccc(CO)cc1` [Mal-O-PIP-ThioU-ValCitPAB-OH, (S)-2-((S)-2-(3-(2-(4-(2-(2-(2,5-Dioxo-2,5-dihydro-1H-pyrrol-1-yl)ethoxy)ethyl)piperazin-1-yl)ethyl)thioureido)-3-methylbutanamido)-N-(4-(hydroxymethyl)phenyl)-5-ureidopentanamide], the values for the solubility in data set [1] (setting [3]) and in data set [1] (setting [4]) were 1400 mM (≈ 1010 mg/mL) and 600 mM (≈ 431 mg/mL), respectively.

Turning to `CC(C)[C@H](NC(=O)CCN1CCN(CCOCCN2C(=O)C=CC2=O)CC1)C(=O)N[C@@H](CCCNC(N)=O)C(=O)Nc1ccc(CO)cc1` [Mal-O-PIP-ValCitPAB-OH, (S)-2-((S)-2-(3-(4-(2-(2-(2,5-Dioxo-2,5-dihydro-1H-pyrrol-1-yl)ethoxy)ethyl)piperazin-1-yl)propanamido)-3-methylbutanamido)-N-(4-(hydroxymethyl)phenyl)-5-ureidopentanamide], the solubility in data set [1] (setting [3]) was found to be 1500 mM (≈ 1030 mg/mL); in data set [1] (setting [4]), 700 mM (≈ 481 mg/mL).

For the compound `CC(C)C(NC(=O)CCOCCOCCOCCOCCN1C(=O)C=CC1=O)C(=O)NC(CCCNC(N)=O)C(=O)Nc1ccc(CO)cc1` (stereo not shown) [Mal-PEG4-ValCitPAB-OH, reference compound], the “solubility, conc.” value in data set [1] (0.9% NaCl) is 35 mM (≈ 24.7 mg/mL); in data set [1] (5% glucose) it was 24 mM (≈ 17 mg/mL). Also, the values for the solubility in data set [1] (setting [3]) and in data set [1] (setting [4]) were 40 mM (≈ 28.3 mg/mL) and 20 mM (≈ 14.1 mg/mL), respectively.

As to `CC(=O)[O][Pt]12([O]C(=O)NCCOCCOCCOCCOCCN3C(=O)C=CC3=O)([NH][C@@H]3CCCC[C@H]3[NH]1)[O]C(=O)C(=O)[O]2` [Ox-OAc-PEG4-Mal, (OC-6–34)-Acetato-[(1R,2R)-1,2-cyclohexanediamino][(14-(2,5-dioxo-2,5-dihydro-1H-pyrrol-1-yl)-3,6,9,12-tetraoxatetradecyl)carbamato]oxalatoplatinum(IV)], the “intact maleimide / intact complex remaining after 5 h incubation” value in data set [2] was approximately 70%. Further, on albumin, the “bound to albumin after 1 h of incubation” value is reported as approximately 90% and the “bound to albumin at time point 0” value is approximately 60%. Further, the “time the formed platinum(IV)-albumin conjugate remained stable” value at albumin (FCS, pH 7.4, 37 °C) is listed as “over 25 h”. Moreover, the “remaining parental complex not bound to albumin (tR > 5 min)” value on albumin (FCS, pH 7.4, 37 °C, after 1 h) was determined as 10%.

As for `CC(=O)[O][Pt]12([O]C(=O)NCCN3CCN(CCN4C(=O)C=CC4=O)CC3)([NH][C@@H]3CCCC[C@H]3[NH]1)[O]C(=O)C(=O)[O]2` [Ox-OAc-PIP-C2-Mal, (OC-6–34)-Acetato-[(1R,2R)-1,2-cyclohexanediamino][(2-(4-(2-(2,5-dioxo-2,5-dihydro-1H-pyrrol-1-yl)ethyl)piperazin-1-yl)ethyl)carbamato]oxalatoplatinum(IV)], the “bound to albumin at time point 0” value at albumin is on record as approximately 60%. Also, the “signal of most likely already hydrolyzed maleimide compound in LMWF (tR 5.8 min)” value at albumin (FCS, pH 7.4, 37 °C) is recorded as approximately 35%. Moreover, on albumin (FCS, pH 7.4, 37 °C, over 25 h), the “course of albumin binding over time” value was “did not further increase over time”.

On to `CC(=O)[O][Pt]12([O]C(=O)NCCN3CCN(CCCCCN4C(=O)C=CC4=O)CC3)([NH][C@@H]3CCCC[C@H]3[NH]1)[O]C(=O)C(=O)[O]2` [Ox-OAc-PIP-C5-Mal, (OC-6–34)-Acetato-[(1R,2R)-1,2-cyclohexanediamino][(2-(4-(5-(2,5-dioxo-2,5-dihydro-1H-pyrrol-1-yl)pentyl)piperazin-1-yl)ethyl)carbamato]oxalatoplatinum(IV)], for which, on albumin, the “bound to albumin after 1 h of incubation” value is on record as approximately 95% and the “bound to albumin at time point 0” value turned out to be 69%.

`CC(=O)[O][Pt]12([O]C(=O)NCCN3CCN(CCOCCN4C(=O)C=CC4=O)CC3)([NH][C@@H]3CCCC[C@H]3[NH]1)[O]C(=O)C(=O)[O]2` [Ox-OAc-PIP-O-Mal, (OC-6–34)-Acetato-[(1R,2R)-1,2-cyclohexanediamino][(2-(4-(2-(2-(2,5-dioxo-2,5-dihydro-1H-pyrrol-1-yl)ethoxy)ethyl)piperazin-1-yl)ethyl)carbamato]oxalatoplatinum(IV)]: at albumin, the “bound to albumin after 1 h of incubation” value is approximately 95% and the “bound to albumin at time point 0” value is listed as 75%.
